Measured values: patent US10457641B2, “Certain chemical entities, compositions, and methods” (NEUPHARMA, INC., priority 2012, dated 2019)

How the values were obtained:
BRAF = target: T1, BRAF (Homo sapiens, UniProt P15056); test: Z'-LYTE kinase inhibition assay, BRAF; assay type: biochemical; settings: 1 μM compound; Z'-LYTE method
T1 construct: purchased Invitrogen
Description: (§1) Inhibitory activities of compounds against BRAF or BRAF V600E were measured by Invitrogen using Z′-LYTE® Method as briefly described in the following.
(§2) 4× Test compounds are dissolved in 1% DMSO. […] ATP solutions are diluted to a 4×ATP working concentration in Kinase Buffer (50 mM HEPES pH 7.5, 0.01% BRIJ-35, 10 mM MgCl2, 1 mM EGTA).
(§3) Reaction starts by 30-second shaking of mixture consisting of 2.5 μL 4× test compound, 2.5 μL 2× kinase reaction mixture and 2.5 μL 4×ATP Solution on Bar-coded Corning, low volume NBS, black 384-well plate (Corning Cat. #3676). Then the mixture is incubated for 60-minute at room temperature for the kinase reaction, followed by addition of 5 μL of a 1:1024 dilution of development reagent A and 30-second plate shake. The mixture is then incubated for another 60-minute at room temperature for development reaction. Finally fluorescence is read by plate reader.

BRAF V600E = target: T2, BRAF V600E (Homo sapiens, UniProt P15056, V600E); test: Z'-LYTE kinase inhibition assay, BRAF V600E; assay type: biochemical; settings: 1 μM compound; Z'-LYTE method
T2 construct: purchased Invitrogen
Description: as §1, §2, §3

[1] = test system: A375 (human melanoma cell, BRAF V600E Mutant); test: Inhibition of cancer cell growth, MTT assay, A375; assay type: cell-based; settings: A-375, 72 h treatment
Description: (§4) A375 (human melanoma cell, BRAF V600E Mutant), A549 (adenocarcinomic human alveolar basal epithelial cell) and Colo-205 (human colon carcinoma cell) were purchased from ATCC (American Type Culture Collection, Manassas, Va.). All cell lines were maintained in RPMI 1640 (Hyclone) or DMEM (Hyclone) supplemented with 10% fetal bovine serum (FBS, Hyclone), glutamine (2 mM, Hyclone), and antibiotics (penicillin 100 U/mL and streptomycin 50 μg/mL) at 37° C. in a humidified atmosphere of 5% CO2 in air.
(§5) To test IC50 of inhibition of individual compounds against each cell line, A375, A549 and Colo-205 cells were first plated in 96-well plates at densities of 2000-4000 cells/well. Cells were then incubated to allow cells to adhere and grow for 24 h. Cells were then treated with a series of concentrations of compounds for 72 h. The highest concentration of compounds was 20 μM. Cells were then removed from the incubator and medium was removed by inverting and tapping the plates. 100 μL of MTT (0.5 mg/ml) or 10 μL or MTS was added to each well followed by an incubated at 37° C. for 4 h. Then MTT was removed and 200 μL of DMSO was added to each well, followed by reading the ODs at 570 nm after a 5 second shaking cycle in a 96-well spectrophotometer. For MTS method, MTS was not removed, and the incubated solutions were directly put in a 96-well spectrophotometer for the reading of the ODs at 492 nm.
(§6) IC50 was calculated by plotting the concentration of compound vs the percentage of inhibition in treated wells using GraphPad Prism 5. […] The scale utilized in Table 3 is as follows: +++ less than 1 μM; ++ between 1 μM and 5 μM; and + greater than 5 μM.

[2] = test system: A549 (adenocarcinomic human alveolar basal epithelial cell); test: Inhibition of cancer cell growth, MTT assay, A549; assay type: cell-based; settings: 72 h treatment
Description: as §4, §5, §6

[3] = test system: Colo-205 (human colon carcinoma cell); test: Inhibition of cancer cell growth, MTS assay, Colo-205; assay type: cell-based; settings: 72 h treatment
Description: as §4, §5, §6

T1 sequence (P15056 whole entry): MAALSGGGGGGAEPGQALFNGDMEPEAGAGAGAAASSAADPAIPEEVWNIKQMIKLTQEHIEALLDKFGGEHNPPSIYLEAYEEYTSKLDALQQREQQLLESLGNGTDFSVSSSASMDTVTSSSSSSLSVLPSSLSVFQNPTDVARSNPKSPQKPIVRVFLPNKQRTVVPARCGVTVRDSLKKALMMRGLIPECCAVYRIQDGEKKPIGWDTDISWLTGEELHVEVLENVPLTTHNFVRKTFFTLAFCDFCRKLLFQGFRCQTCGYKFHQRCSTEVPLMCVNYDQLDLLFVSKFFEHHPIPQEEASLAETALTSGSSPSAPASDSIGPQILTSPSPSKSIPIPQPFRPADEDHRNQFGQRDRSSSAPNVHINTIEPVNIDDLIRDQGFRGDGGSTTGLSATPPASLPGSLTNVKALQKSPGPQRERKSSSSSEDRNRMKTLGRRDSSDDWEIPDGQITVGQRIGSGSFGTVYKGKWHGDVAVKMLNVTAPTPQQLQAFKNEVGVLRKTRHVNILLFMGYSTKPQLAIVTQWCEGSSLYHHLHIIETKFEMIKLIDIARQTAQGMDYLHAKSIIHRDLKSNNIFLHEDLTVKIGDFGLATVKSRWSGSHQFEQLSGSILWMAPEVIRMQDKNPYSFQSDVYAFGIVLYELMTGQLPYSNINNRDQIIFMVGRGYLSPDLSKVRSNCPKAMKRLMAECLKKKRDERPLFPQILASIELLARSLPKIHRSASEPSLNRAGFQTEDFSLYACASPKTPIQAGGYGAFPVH
T2 sequence (P15056 whole entry V600E): as the sequence (P15056 whole entry) above, with V600E counted along it

| SMILES | inhibition at 1 µM (BRAF) [%] | inhibition at 1 µM (BRAF V600E) [%] | IC50 [1] [µM] | IC50 [2] [µM] | IC50 [3] [µM] |
| --- | --- | --- | --- | --- | --- |
| CCCS(=O)(=O)Nc1cc(F)c(F)c(C(=O)c2ccc3ncccc3c2)c1F [Compound C001, N-(2,4,5-trifluoro-3-(quinoline-6-carbonyl)phenyl)propane-1-sulfonamide] | 70 to 89 | > 89 | < 1 | > 5 | 1 to 5 |
| O=C(Nc1cccc(F)c1)Nc1cc(F)c(F)c(C(=O)c2ccc3ncccc3c2)c1F [Compound C002, 1-(3-fluorophenyl)-3-(2,4,5-trifluoro-3-(quinoline-6-carbonyl)phenyl)urea] | – | < 70 | > 5 | 1 to 5 | > 5 |
| O=C(Nc1ccc(F)cc1)Nc1cc(F)c(F)c(C(=O)c2ccc3ncccc3c2)c1F [Compound C003, 1-(4-fluorophenyl)-3-(2,4,5-trifluoro-3-(quinoline-6-carbonyl)phenyl)urea] | < 70 | < 70 | > 5 | > 5 | > 5 |
| O=C(Nc1ccc(F)c(F)c1)Nc1cc(F)c(F)c(C(=O)c2ccc3ncccc3c2)c1F [Compound C004, 1-(3,4-difluorophenyl)-3-(2,4,5-trifluoro-3-(quinoline-6-carbonyl)phenyl)urea] | – | < 70 | > 5 | 1 to 5 | > 5 |
| O=C(Nc1cc(F)cc(F)c1)Nc1cc(F)c(F)c(C(=O)c2ccc3ncccc3c2)c1F [Compound C005, 1-(3,5-difluorophenyl)-3-(2,4,5-trifluoro-3-(quinoline-6-carbonyl)phenyl)urea] | – | < 70 | 1 to 5 | 1 to 5 | > 5 |
| O=C(Nc1cc(F)c(F)c(C(=O)c2ccc3ncccc3c2)c1F)c1cccc(F)c1 [Compound C006, 3-fluoro-N-(2,4,5-trifluoro-3-(quinoline-6-carbonyl)phenyl)benzamide] | < 70 | 70 to 89 | > 5 | > 5 | > 5 |
| O=C(Nc1cc(F)c(F)c(C(=O)c2ccc3ncccc3c2)c1F)c1ccc(F)cc1 [Compound C007, 4-fluoro-N-(2,4,5-trifluoro-3-(quinoline-6-carbonyl)phenyl)benzamide] | – | < 70 | > 5 | > 5 | > 5 |
| O=C(Nc1cc(F)c(F)c(C(=O)c2ccc3ncccc3c2)c1F)c1cc(F)cc(F)c1 [Compound C008, 3,5-difluoro-N-(2,4,5-trifluoro-3-(quinoline-6-carbonyl)phenyl)benzamide] | < 70 | < 70 | > 5 | > 5 | > 5 |
| O=C(Nc1cc(F)c(F)c(C(=O)c2ccc3ncccc3c2)c1F)c1ccc(F)c(F)c1 [Compound C009, 3,4-difluoro-N-(2,4,5-trifluoro-3-(quinoline-6-carbonyl)phenyl)benzamide] | – | < 70 | > 5 | > 5 | > 5 |
| CCCS(=O)(=O)Nc1cc(F)c(F)c(C(=O)c2ccc3ncncc3c2)c1F [Compound C010, N-(2,4,5-trifluoro-3-(quinazoline-6-carbonyl)phenyl)propane-1-sulfonamide] | > 89 | > 89 | < 1 | > 5 | < 1 |
